pEC50, pIC50: −log10 of the molar value.
Tests used:
IL-1β = experiment: THP-1 AlphaLISA IL-1β cytokine assay; type: cell-based; conditions: Homo sapiens, THP-1, differentiated THP-1 cells
Protocol: (§1) Measuring Inhibitory Effects on IL-1V and IL-6 Cytokine Output from THP-1s
(§2) The cytokine inhibition profiles of compounds of formula (I) were determined in a differentiated THP-1 cell assay. All assays were performed in RPMI-1640 growth medium (Gibco), supplemented with 10% fetal bovine serum (FBS; Gibco), 1% penicillin-streptomycin and 1% sodium pyruvate unless specified otherwise. The IL-1β and IL-6 cytokine inhibition assays were run in a background of differentiated THP-1 cells as described below. All reagents described were from Sigma-Aldrich unless specified otherwise. Compounds were prepared as 10 mM DMSO stocks.
(§3) THP-1 cells were expanded as a suspension up to 80% confluence in appropriate growth medium. Cells were harvested, suspended, and treated with an appropriate concentration of phorbol 12-myristate 13-acetate (PMA) over a 72 hr period (37° C./5% CO2).
(§4) Following 72 hrs of THP-1 cell incubation, cellular medium was removed and replaced with fresh growth media containing 1% of FBS. Working concentrations of compounds were prepared separately in 10% FBS treated growth medium and pre-incubated with the cells for 30 minutes (37° C./5% CO2). Following the 30 minute compound pre-incubation, THP-1s were treated with an appropriate concentration of LPS and the THP-1s were subsequently incubated for a 24 hr period (37° C./5% CO2). An appropriate final concentration of Nigericin was then dispensed into the THP-1 plates and incubated for 1 hour (37° C./5% CO2) before THP-1 supernatants were harvested and collected in separate polypropylene 96-well holding plates.
(§5) Reagents from each of the IL-1β and IL-6 commercial kits (Perkin Elmer) were prepared and run according to the manufacturer's instructions. Subsequently, fluorescence signal detection in a microplate reader was measured (EnVision® Multilabel Reader, Perkin Elmer).
(§6) Percentage inhibition was calculated per cytokine by normalising the sample data to the high and low controls used within each plate (+/−LPS respectively). Percentage inhibition was then plotted against compound concentration and the 50% inhibitory concentration ([…]) was determined from the resultant concentration-response curve.

IL-6 = experiment: THP-1 AlphaLISA IL-6 cytokine assay; type: cell-based; conditions: Homo sapiens, THP-1, differentiated THP-1 cells, LPS 24 hr then Nigericin 1 hour
Protocol: as §1, §2, §3, §4, §5, §6

[1] = Hepatocyte stability assay (mouse); type: in vitro ADME; conditions: mouse, cryopreserved hepatocytes, 10 μM compound, 60 min, read-out: T½
Source text: (§7) Defrosted cryo-preserved hepatocytes (viability>70%) were used to determine the metabolic stability of a compound via calculation of intrinsic clearance (Clint; a measure of the removal of a compound from the liver in the absence of blood flow and cell binding). Clearance data are particularly important for in vitro work as they can be used in combination with in vivo data to predict the half-life and oral bioavailability of a drug.
(§8) The metabolic stability in hepatocytes assay involved a time-dependent reaction using both positive and negative controls. The cells must be pre-incubated at 37° C. then spiked with test compound (and positive control); samples taken at pre-determined time intervals were analysed to monitor the change in concentration of the initial drug compound over 60 minutes. A buffer incubation reaction (with no hepatocytes present) acted as a negative control and two cocktail solutions, containing compounds with known high and low clearance values (verapamil/7-hydroxycoumarin and propranolol/diltiazem), acted as positive controls. • 1. The assay was run with a cell concentration of 0.5×10^6 cells/mL in Leibovitz buffer. • 2. All compounds and controls were run in duplicate. • 3. Compound concentration was 10 μM. • 4. All compounds and controls were incubated with both cells and buffer to show turnover is due to hepatic metabolism. • 5. All wells on the incubation plate had 326.7 μL of either cells or buffer added. • 6. Prior to assay, cell and buffer-only incubation plates were preincubated for 10 mins at 37° C. • 7. The assay was initiated by adding compounds, 3.3 μL of 1 mM in 10% DMSO-90% Buffer; final DMSO concentration is 0.1%. • 8. Samples were taken at regular timepoints (0, 5, 10, 20, 40, 60 min) until 60 mins. • 9. Sample volume was 40 μL and added to 160 μL of crash solvent (acetonitrile with internal standard) and stored on ice. • 10. At the end of the assay, the crash plates were centrifuged at 3500 rpm for 20 mins at 4° C. • 11. 80 μL of clear supernatant was removed and mixed with 80 μL of deionised water before being analysed by LC-MS/MS.
(§9) Raw LC-MS/MS data were exported to, and analysed in, Microsoft Excel for determination of intrinsic clearance. The percentage remaining of a compound was monitored using the peak area of the initial concentration as 100%. Intrinsic clearance and half-life values were calculated using a graph of the natural log of percentage remaining versus the time of reaction in minutes. Half-life (min) and intrinsic clearance (Clint in μL min^−1 10^−6 cells) values were calculated using the gradient of the graph (the elimination rate constant, k) and Equations 1 and 2.

hepatocytes [2] = experiment: Hepatocyte stability assay (mouse); type: in vitro ADME; conditions: 10 μM compound, 60 min
Source text: as §7, §8, §9

[3] = Hepatocyte stability assay (human); type: in vitro ADME; conditions: human, cryopreserved hepatocytes, 10 μM compound, 60 min, read-out: T½
Source text: as §7, §8, §9

hepatocytes [4] = experiment: Hepatocyte stability assay (human); type: in vitro ADME; conditions: 10 μM compound, 60 min
Source text: as §7, §8, §9

NRF2 = NRF2 +/- GSH activation assay (DiscoverX PathHunter NRF2 translocation kit); type: cell-based; conditions: for Emax: normalised to dimethyl fumarate high control; for pEC50: Homo sapiens, U2OS, U2OS PathHunter cells
[5] = LPS 24 hr then Nigericin 1 hour

Structure (SMILES)	pIC50 (IL-1β; [5])	pIC50 (IL-6)	half-life at 10 μM [1] [h]	Clint (hepatocytes [2]) [μL min^−1 10^−6 cells]	half-life at 10 μM [3] [h]	Clint (hepatocytes [4]) [μL min^−1 10^−6 cells]	Emax (NRF2; +GSH) [%]	pEC50 (NRF2; +GSH)	pEC50 (NRF2; −GSH)	Emax (NRF2; −GSH) [%]	pIC50 (IL-1β; data from repeated experiments)
C=C(CC(=O)OC1(c2ccc(C(F)(F)F)cc2)CC(C)C1)C(=O)O (single isomer, unassigned) [Example 44, 4-(3-methyl-1-(4-(trifluoromethyl)phenyl)cyclobutoxy)-2-methylene-4-oxobutanoic acid]	5.29	< 4.00	2.33	9	> 7.67	<3					
C=C(CC(=O)O[C@@H](C)c1ccc(C(F)(F)F)cc1)C(=O)O [Example 4, (S)-2-methylene-4-oxo-4-(1-(4-(trifluoromethyl)phenyl)ethoxy)butanoic acid]	5.72	< 4.25			2.45	10	0	< 4.00	< 4.00	4	
C=C(CC(=O)OC1(c2ccc(Br)cc2)CCC1)C(=O)O [Example 5, 4-(1-(4-bromophenyl)cyclobutoxy)-2-methylene-4-oxobutanoic acid]	6.15	< 4.50	1.13	25	1.48	15					
C=C(CC(=O)OC1(c2ccc(C(F)(F)F)c(F)c2)CCC1)C(=O)O [Example 17, 4-(1-(3-fluoro-4-(trifluoromethyl)phenyl)cyclobutoxy)-2-methylene-4-oxobutanoic acid]	5.70	< 4.50	3.53	9	2.62	11					
C=C(CC(=O)OC1(c2ccc(S(F)(F)(F)(F)F)cc2)CCC1)C(=O)O [Example 18, 2-methylene-4-oxo-4-(1-(4-(pentafluoro-λ^6-sulfaneyl)phenyl)cyclobutoxy)butanoic acid]	5.74	4.21	0.633	50	3.63	8					
C=C(CC(=O)OC1(c2ccc(C(C)(F)F)cc2)CCC1)C(=O)O [Example 19, 4-(1-(4-(1,1-difluoroethyl)phenyl)cyclobutoxy)-2-methylene-4-oxobutanoic acid]	5.92	< 4.17	1.35	23	7.45	4					
C=C(CC(=O)OC1(c2ccc(C(F)F)cc2)CCC1)C(=O)O [Example 20, 4-(1-(4-(difluoromethyl)phenyl)cyclobutoxy)-2-methylene-4-oxobutanoic acid]	5.52	4.31	2.33	13	7.45	4					
C=C(CC(=O)OC1(c2ccc(C(F)(F)F)nc2)CCC1)C(=O)O [Example 22, 2-methylene-4-oxo-4-(1-(6-(trifluoromethyl)pyridin-3-yl)cyclobutoxy)butanoic acid]	5.29	< 4.00	8.87	4	> 7.67	<3					
C=C(CC(=O)OC1(c2ccc(Br)cc2)COC1)C(=O)O [Example 23, 4-((3-(4-bromophenyl)oxetan-3-yl)oxy)-2-methylene-4-oxobutanoic acid]	5.85	< 4.00	2.1	12	> 7.67	<3					
C=C(CC(=O)OC1(c2ccc(C(F)(F)F)cc2)COC1)C(=O)O [Example 24, 2-methylene-4-oxo-4-((3-(4-(trifluoromethyl)phenyl)oxetan-3-yl)oxy)butanoic acid]	5.85	< 4.00	2.42	11	> 7.67	<3					
C=C(CC(=O)OC1(c2ccc(C#N)cc2)CCC1)C(=O)O [Example 25, 4-(1-(4-cyanophenyl)cyclobutoxy)-2-methylene-4-oxobutanoic acid]	4.81	< 4.00	2.95	9	5.65	4					
C=C(CC(=O)OC1(c2ccc(C(F)(F)F)cn2)CCC1)C(=O)O [Example 27, 2-methylene-4-oxo-4-(1-(5-(trifluoromethyl)pyridin-2-yl)cyclobutoxy)butanoic acid]	5.85	< 4.00	> 7.67	<3	> 7.67	<3					5.40
C=C(CC(=O)OC1(c2ccc(C(F)(F)F)cc2)CC(F)(F)C1)C(=O)O [Example 29, 4-(3,3-difluoro-1-(4-(trifluoromethyl)phenyl)cyclobutoxy)-2-methylene-4-oxobutanoic acid]	5.89	< 4.00	1.32	20	2.38	11					
C=C(C(=O)O)C(C)(C)C(=O)OC1(c2ccc(C(F)(F)F)cc2)CCC1 [Example 30, 3,3-dimethyl-2-methylene-4-oxo-4-(1-(4-(trifluoromethyl)phenyl)cyclobutoxy) butanoic acid]	5.92	< 4.00	0.25	104	0.617	41					
C=C(CC(=O)OC1(c2ccc(C(F)(F)C(F)(F)F)cc2)CCC1)C(=O)O [Example 31, 2-methylene-4-oxo-4-(1-(4-(perfluoroethyl)phenyl)cyclobutoxy)butanoic acid]	5.47	< 4.00	0.7	38	2.33	11					
C=C(CC(=O)OC1(c2ccc(C(F)(F)F)s2)CCC1)C(=O)O [Example 32, 2-methylene-4-oxo-4-(1-(5-(trifluoromethyl)thiophen-2-yl)cyclobutoxy)butanoic acid]	5.28	< 4.00	1.27	21	1.53	17					

Source: patent publication US20230399287A1, “NOVEL COMPOUNDS” (Sitryx Therapeutics Limited, priority 2020, published 2023)
